Measurements taken from patent US10828304B2, “Compositions and methods for white to beige adipogenesis” (University of South Florida, priority 2017, dated 2020).
pIC50: −log10 of the molar value.

Key:
Clk1 = details: stated as 'may be about'; no test described; cited from earlier work
3T3-L1 cells [1] = assay: Oil Red O staining of triglycerides and lipids in 3T3-L1 cells; assay type: cell-based; details: 100 nM, 3 to 5 days during terminal differentiation
Description: (§1) The effect of the Clk1 inhibitor DC677 or DC761 on 3T3-L1 cells was examined. 3T3-L1 cells were incubated with 50 nM TG003 (an inhibitor of Clk1), 100 nM DC677, or 100 nM DC761 for 3 to 5 days. Adipocytes were used as a control. UCP1 expression was determined (results are shown in FIG. 1A and FIG. 2A; RQ is reference quotient). Oil Red O (obtained from Sigma-Aldrich, St. Louis, Mo.) was used to stain triglycerides and lipids, and the levels of Oil Red O were determined by measuring absorbance at 520 nm (results are shown in FIG. 1C and FIG. 2C). MitoTracker™ Green (Thermo Fischer Scientific, Waltham, Mass.) was used to stain mitochondria, and levels were determined by measuring absorbance at 495 nm (results are shown in FIG. 1D and FIG. 2D).

3T3-L1 cells [2] = assay: Differentiation of 3T3-L1 cells into beige cells; assay type: cell-based; details: for differentiation of 3T3-L1 cells into beige cells: 100 nM, 3 to 5 days
Description: as §1

UCP1 = UCP1 expression in 3T3-L1 cells; assay type: cell-based; details: 100 nM, 3 to 5 days during terminal differentiation, vs adipocyte control
Description: as §1

PGC1α = PGC1α expression in 3T3-L1 cells; assay type: cell-based; details: 100 nM, 3 to 5 days during terminal differentiation, vs adipocyte control
3T3-L1 cells [3] = assay: MitoTracker Green staining of mitochondria in 3T3-L1 cells; assay type: cell-based; details: dose of 100 nM
Description: as §1
The effect of the Clk1 inhibitor DC677 on 3T3-L1 cells was examined with fluorescence microscopy. 3T3-L1 cells were cultured in a 12-well plate and differentiated by […] (MDI). The cells were then incubated with insulin, TG003, or DC677. On day 8, the cells were stained with MitoTracker™ Green (Thermo Fischer Scientific, Waltham, Mass.). In FIG. 3, the cell treatment is as follows: (1) insulin as a control; (2) 50 nm TG003 added on day 2; (3) 50 nm TG003 added on day 4; (4) 100 nm DC677 added on day 2; (5) 100 nm DC677 added on day 4; and (6) 100 nm DC677 added on day 6.

SMILES	pIC50 (Clk1)	lipid storage and lipid droplet size (3T3-L1 cells [1])	differentiation of 3T3-L1 cells into beige cells (3T3-L1 cells [2])	UCP1 expression (UCP1)	PGC1α expression (PGC1α)	performance compared with TG003 (3T3-L1 cells [2]; 100 nM DC677 vs 50 nM TG003)	mitochondrial biogenesis, effectiveness compared to TG003 at 50 nM (3T3-L1 cells [3])
CC(=O)Nc1cccc(N2C(=O)c3cccc4cc([N+](=O)[O-])cc(c34)C2=O)c1 [DC761, N-[3-(5-nitro-1,3-dioxo-1H-benzo[de]isoquinolin-2(3H)-yl)phenyl]acetamide]		stored fewer lipids in smaller lipid droplets	can differentiate into “beige” cells	increased	increased		
O=C1Nc2ccc(Br)cc2/C1=C\c1nc2ccccc2c(=O)n1Cc1ccccc1 [DC677, 3-benzyl-2-[(5-bromo-2-oxo-1,2-dihydro-3H-indol-3-ylidene)methyl]-4(3H)-quinazolinone]		stored fewer lipids in smaller lipid droplets	can differentiate into “beige” cells	increased	increased	performs equally well to TG003	highly effective
